Test: Thermogravimetric analysis (TGA), thermal stability
Type: physicochemical
Details: 10° C./min, nitrogen
Procedure: TGA. […] Each sample was placed in an alumina crucible and heated from 25 to 1000° C. at a heating rate of 10° C./min under a constant flow of nitrogen. […] The different thermal decomposition pattern of a-CAA further supports the hypothesis that the milling product is a co-amorphous formulation and not a physical mixture of amorphous starting materials. […] The similarity between the IR spectra of both formulations points to similarities in their local structures and is indicative of a 1:1 stoichiometry. This stoichiometry was confirmed by thermal analyses. […] The similar TGA profiles of dried c-CAA and a-CAA, shown in FIGS. 3A and 3B, further confirm that the co-amorphous and the co-crystalline formulation have the same stoichiometry and similar local structures.

| SMILES | decomposition temperature (stable up to) [°C] |
| --- | --- |
| O=C(O)CC(O)(CC(=O)O)C(=O)O [citric acid anhydrate] | 164 |
| CN(CC(=O)O)C(=N)N [creatine anhydrate] | 220 |

— patent publication US12208076B2 (Southern Methodist University, priority 2020, dated 2025)
